Measured values: ChEMBL document CHEMBL3612012, “Identification of orally-bioavailable antagonists of the TRPV4 ion-channel” (Bioorg Med Chem Lett, 2015)

Key:
[1] = target: Sodium-dependent noradrenaline transporter (Homo sapiens) (UniProt P23975); assay: Binding affinity to human NE transporter assessed as inhibition of control specific binding at 10 uM
[2] = target: Sodium-dependent serotonin transporter (Homo sapiens) (UniProt P31645); assay: Binding affinity to human 5-HT transporter assessed as inhibition of control specific binding at 10 uM
Sodium-dependent serotonin transporter (Homo sapiens), sequence (P31645 whole entry, looked up): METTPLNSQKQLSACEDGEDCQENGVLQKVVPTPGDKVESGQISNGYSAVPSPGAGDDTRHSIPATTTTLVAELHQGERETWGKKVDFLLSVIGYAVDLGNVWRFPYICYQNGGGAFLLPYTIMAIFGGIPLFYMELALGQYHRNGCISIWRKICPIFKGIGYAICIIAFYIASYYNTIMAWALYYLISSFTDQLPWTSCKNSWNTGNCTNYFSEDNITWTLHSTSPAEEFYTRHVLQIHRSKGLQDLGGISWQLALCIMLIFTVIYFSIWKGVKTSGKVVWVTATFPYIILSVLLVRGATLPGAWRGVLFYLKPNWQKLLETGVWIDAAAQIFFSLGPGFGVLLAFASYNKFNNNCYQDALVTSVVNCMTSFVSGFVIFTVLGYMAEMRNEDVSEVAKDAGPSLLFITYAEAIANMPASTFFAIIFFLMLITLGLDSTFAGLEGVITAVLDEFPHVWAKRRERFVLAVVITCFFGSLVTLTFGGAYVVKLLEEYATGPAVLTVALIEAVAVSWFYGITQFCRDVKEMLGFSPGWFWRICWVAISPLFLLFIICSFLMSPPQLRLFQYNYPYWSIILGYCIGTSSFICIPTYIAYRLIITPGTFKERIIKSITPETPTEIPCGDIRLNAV

[3] = target: Transient receptor potential cation channel subfamily V member 4 (Homo sapiens, UniProt Q9HBA0); assay: Antagonist activity at human TRPV4 receptor expressed in HEK293 cells assessed as inhibition of EC80 of 4alpha-PDD-stimulated calcium flux after 10 mins; format: cell-based
[4] = Volume of distribution at steady state in Wistar rat at 1.40 mg/kg, iv; format: ADME, organism-based; details: in vivo, 1.4 mg/kg, read-out: Vdss
[5] = Half life in Wistar rat at 1.40 mg/kg, iv; format: ADME, organism-based; details: in vivo, 1.4 mg/kg
[6] = Cmax in Wistar rat at 29.73 mg/kg, po; format: ADME, organism-based; design: dose 29.73 mg/kg, route oral; details: in vivo
[7] = Oral bioavailability in Wistar rat at 29.73 mg/kg; format: ADME, organism-based; details: in vivo
[8] = Plasma protein binding in human; format: ADME, cell-free; details: read-out: PPB (converted)
[9] = target: T1, Transient receptor potential cation channel subfamily V member 4 (Rattus norvegicus, UniProt Q9ERZ8); assay: Antagonist activity at rat TRPV4 expressed in HEK293 cells assessed as inhibition of 20% hypotonic solution-induced Ca2+ influx; format: cell-based
T1 sequence (Q9ERZ8 whole entry): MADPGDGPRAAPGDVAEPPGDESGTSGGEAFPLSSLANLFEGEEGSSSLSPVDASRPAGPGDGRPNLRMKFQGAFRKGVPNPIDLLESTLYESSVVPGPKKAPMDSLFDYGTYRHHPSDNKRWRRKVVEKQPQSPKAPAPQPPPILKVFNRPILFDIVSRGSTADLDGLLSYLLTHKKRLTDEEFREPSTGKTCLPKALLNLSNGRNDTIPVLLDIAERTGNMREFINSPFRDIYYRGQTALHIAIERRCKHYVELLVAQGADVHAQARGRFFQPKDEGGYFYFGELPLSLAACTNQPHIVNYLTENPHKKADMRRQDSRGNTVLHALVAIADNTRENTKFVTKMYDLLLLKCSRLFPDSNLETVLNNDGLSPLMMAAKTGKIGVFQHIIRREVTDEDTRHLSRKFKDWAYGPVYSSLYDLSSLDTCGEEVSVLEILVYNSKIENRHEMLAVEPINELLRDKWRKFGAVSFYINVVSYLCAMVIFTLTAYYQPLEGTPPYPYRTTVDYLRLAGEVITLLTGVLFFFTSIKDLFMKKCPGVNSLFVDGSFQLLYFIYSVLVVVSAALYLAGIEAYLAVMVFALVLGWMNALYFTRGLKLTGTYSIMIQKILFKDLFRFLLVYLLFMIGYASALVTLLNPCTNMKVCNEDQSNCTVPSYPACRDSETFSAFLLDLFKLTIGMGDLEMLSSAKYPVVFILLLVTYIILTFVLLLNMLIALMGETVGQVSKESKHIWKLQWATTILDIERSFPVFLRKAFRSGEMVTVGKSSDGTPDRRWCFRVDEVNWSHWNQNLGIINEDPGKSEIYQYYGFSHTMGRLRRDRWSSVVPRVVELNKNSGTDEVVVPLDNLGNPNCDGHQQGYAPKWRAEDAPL

[10] = target: T1, Transient receptor potential cation channel subfamily V member 4; assay: Antagonist activity at rat TRPV4 receptor expressed in HEK293 cells assessed as inhibition of 4alpha-PDD-stimulated calcium flux after 10 mins; format: cell-based
[11] = target: T2, Transient receptor potential cation channel subfamily V member 4 (Mus musculus, UniProt Q9EPK8); assay: Antagonist activity at mouse TRPV4 receptor expressed in HEK293 cells assessed as inhibition of EC80 of 4alpha-PDD-stimulated calcium flux after 10 mins; format: cell-based
T2 sequence (Q9EPK8 whole entry): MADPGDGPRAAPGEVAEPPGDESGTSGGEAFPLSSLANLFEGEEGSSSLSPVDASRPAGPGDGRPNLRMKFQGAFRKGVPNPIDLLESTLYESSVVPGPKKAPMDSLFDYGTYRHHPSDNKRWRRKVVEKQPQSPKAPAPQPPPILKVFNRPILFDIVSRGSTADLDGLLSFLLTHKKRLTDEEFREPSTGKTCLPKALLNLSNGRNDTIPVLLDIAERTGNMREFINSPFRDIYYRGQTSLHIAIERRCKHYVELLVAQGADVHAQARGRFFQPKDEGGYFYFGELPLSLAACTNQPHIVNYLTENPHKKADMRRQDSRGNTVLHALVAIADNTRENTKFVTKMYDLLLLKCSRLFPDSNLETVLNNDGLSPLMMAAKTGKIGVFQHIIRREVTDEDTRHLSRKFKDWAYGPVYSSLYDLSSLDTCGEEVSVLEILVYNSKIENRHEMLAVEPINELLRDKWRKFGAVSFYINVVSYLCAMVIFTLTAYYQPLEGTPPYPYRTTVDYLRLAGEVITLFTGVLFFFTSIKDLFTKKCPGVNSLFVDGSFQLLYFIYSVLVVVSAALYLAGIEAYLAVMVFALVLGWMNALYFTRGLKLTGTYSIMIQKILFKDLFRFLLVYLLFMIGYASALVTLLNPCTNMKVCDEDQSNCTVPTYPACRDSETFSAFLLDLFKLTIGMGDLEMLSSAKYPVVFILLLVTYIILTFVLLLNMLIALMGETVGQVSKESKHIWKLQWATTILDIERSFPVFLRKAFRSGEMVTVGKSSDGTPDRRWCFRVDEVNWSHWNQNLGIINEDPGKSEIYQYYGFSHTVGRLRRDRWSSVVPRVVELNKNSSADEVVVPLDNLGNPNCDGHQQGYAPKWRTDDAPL

[12] = target: T2, Transient receptor potential cation channel subfamily V member 4; assay: Antagonist activity at mouse TRPV4 receptor expressed in HEK293 cells assessed as inhibition of 4alpha-PDD-stimulated calcium flux after 10 mins; format: cell-based
[13] = AUC (infinity) in Wistar rat at 32.50 mg/kg, ip; format: ADME, organism-based; design: dose 32.5 mg/kg, route intraperitoneal, time infinity; details: in vivo, 32.5 mg/kg
[14] = Bioavailability in Wistar rat at 32.50 mg/kg, ip; format: ADME, organism-based; details: in vivo, 32.5 mg/kg
[15] = target: Adenosine receptor A1 (Homo sapiens) (UniProt P30542); assay: Binding affinity to human adenosine A1 receptor assessed as inhibition of control specific binding at 10 uM
Adenosine receptor A1 (Homo sapiens), sequence (P30542 whole entry): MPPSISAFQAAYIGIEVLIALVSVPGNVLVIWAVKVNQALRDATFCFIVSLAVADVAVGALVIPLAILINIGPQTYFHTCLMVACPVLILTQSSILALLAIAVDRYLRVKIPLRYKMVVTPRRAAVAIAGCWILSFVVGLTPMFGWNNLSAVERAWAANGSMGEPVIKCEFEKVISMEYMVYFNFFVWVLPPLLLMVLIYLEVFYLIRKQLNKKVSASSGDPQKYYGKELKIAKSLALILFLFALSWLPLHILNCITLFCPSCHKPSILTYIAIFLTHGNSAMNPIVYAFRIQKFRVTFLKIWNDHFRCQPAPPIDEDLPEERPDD

[16] = target: Adenosine receptor A3 (Homo sapiens) (UniProt P0DMS8); assay: Binding affinity to human adenosine A3 receptor assessed as inhibition of control specific binding at 10 uM
Adenosine receptor A3 (Homo sapiens), sequence (P0DMS8 whole entry): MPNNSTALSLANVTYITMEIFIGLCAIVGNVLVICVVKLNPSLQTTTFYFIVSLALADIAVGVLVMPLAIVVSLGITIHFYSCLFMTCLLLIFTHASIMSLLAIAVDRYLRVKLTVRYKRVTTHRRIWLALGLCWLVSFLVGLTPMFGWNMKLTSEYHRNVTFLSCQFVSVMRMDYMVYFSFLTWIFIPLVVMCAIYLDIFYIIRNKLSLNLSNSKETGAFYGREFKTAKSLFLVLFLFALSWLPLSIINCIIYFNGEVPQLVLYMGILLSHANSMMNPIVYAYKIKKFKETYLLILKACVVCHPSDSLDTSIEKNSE

[17] = target: Beta-2 adrenergic receptor (Homo sapiens) (UniProt P07550); assay: Binding affinity to human beta2 adrenergic receptor assessed as inhibition of control specific binding at 10 uM
Homo sapiens [18] = organism: Homo sapiens; assay: Binding affinity to central benzodiazepine receptor (unknown origin) assessed as inhibition of control specific binding at 10 uM
[19] = target: Cannabinoid receptor 1 (Homo sapiens) (UniProt P21554); assay: Binding affinity to human CB1 receptor assessed as inhibition of control specific binding at 10 uM
[20] = target: Cholecystokinin receptor type A (Homo sapiens) (UniProt P32238); assay: Binding affinity to human CCKA receptor assessed as inhibition of control specific binding at 10 uM
[21] = target: D(1A) dopamine receptor (Homo sapiens) (UniProt P21728); assay: Binding affinity to human D1 receptor assessed as inhibition of control specific binding at 10 uM
[22] = target: D(2) dopamine receptor (Homo sapiens) (UniProt P14416); assay: Binding affinity to human D2S receptor assessed as inhibition of control specific binding at 10 uM
[23] = target: Endothelin-1 receptor (Homo sapiens) (UniProt P25101); assay: Binding affinity to human ETA receptor assessed as inhibition of control specific binding at 10 uM
[24] = target: GABA-A receptor; agonist GABA site (Homo sapiens) (UniProt P14867+P47870+P28472+P48169+P34903+P18505+P47869+P31644+Q16445); assay: Binding affinity to GABAA receptor (unknown origin) assessed as inhibition of control specific binding at 10 uM; format: protein-complex assay
[25] = target: Galanin receptor type 2 (Homo sapiens) (UniProt O43603); assay: Binding affinity to human GAL2 receptor assessed as inhibition of control specific binding at 10 uM
[26] = target: Histamine H1 receptor (Homo sapiens) (UniProt P35367); assay: Binding affinity to human H1 receptor assessed as inhibition of control specific binding at 10 uM
[27] = target: Histamine H2 receptor (Homo sapiens) (UniProt P25021); assay: Binding affinity to human H2 receptor assessed as inhibition of control specific binding at 10 uM
[28] = target: Muscarinic acetylcholine receptor M1 (Homo sapiens) (UniProt P11229); assay: Binding affinity to human M1 receptor assessed as inhibition of control specific binding at 10 uM
[29] = target: Muscarinic acetylcholine receptor M2 (Homo sapiens) (UniProt P08172); assay: Binding affinity to human M2 receptor assessed as inhibition of control specific binding at 10 uM
Muscarinic acetylcholine receptor M2 (Homo sapiens), sequence (P08172 whole entry): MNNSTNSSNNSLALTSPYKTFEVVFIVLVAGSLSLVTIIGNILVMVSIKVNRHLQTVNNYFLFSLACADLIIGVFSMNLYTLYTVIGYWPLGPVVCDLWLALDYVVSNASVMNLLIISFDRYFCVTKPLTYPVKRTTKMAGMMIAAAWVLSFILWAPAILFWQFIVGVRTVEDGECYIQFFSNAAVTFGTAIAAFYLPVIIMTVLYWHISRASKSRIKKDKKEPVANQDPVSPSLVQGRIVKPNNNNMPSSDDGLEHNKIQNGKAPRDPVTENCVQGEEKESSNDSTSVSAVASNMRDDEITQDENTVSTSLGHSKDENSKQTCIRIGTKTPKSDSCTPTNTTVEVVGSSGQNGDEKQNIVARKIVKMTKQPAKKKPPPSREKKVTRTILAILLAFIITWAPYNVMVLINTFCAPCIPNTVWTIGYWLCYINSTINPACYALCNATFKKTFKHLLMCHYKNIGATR

[30] = target: Neuromedin-K receptor (Homo sapiens) (UniProt P29371); assay: Binding affinity to human NK3 receptor assessed as inhibition of control specific binding at 10 uM
[31] = target: Neuropeptide Y receptor type 1 (Homo sapiens) (UniProt P25929); assay: Binding affinity to human Y1 receptor assessed as inhibition of control specific binding at 10 uM
[32] = target: Neuropeptide Y receptor type 2 (Homo sapiens) (UniProt P49146); assay: Binding affinity to human Y2 receptor assessed as inhibition of control specific binding at 10 uM
Neuropeptide Y receptor type 2 (Homo sapiens), sequence (P49146 whole entry): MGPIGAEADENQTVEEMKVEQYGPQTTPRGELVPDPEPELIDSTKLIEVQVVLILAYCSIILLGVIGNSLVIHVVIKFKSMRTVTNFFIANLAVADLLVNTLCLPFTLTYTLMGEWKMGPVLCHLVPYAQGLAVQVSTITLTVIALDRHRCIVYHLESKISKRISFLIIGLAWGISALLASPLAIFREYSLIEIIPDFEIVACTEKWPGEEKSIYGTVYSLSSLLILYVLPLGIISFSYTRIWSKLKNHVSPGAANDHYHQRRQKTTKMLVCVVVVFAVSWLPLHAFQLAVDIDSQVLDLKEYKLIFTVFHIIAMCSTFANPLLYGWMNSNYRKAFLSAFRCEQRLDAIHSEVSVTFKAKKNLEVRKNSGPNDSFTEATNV

[33] = target: Nociceptin receptor (Homo sapiens) (UniProt P41146); assay: Binding affinity to human ORL1 receptor assessed as inhibition of control specific binding at 10 uM
[34] = target: 5-hydroxytryptamine receptor 1A (Homo sapiens) (UniProt P08908); assay: Binding affinity to human 5-HT1A receptor assessed as inhibition of control specific binding at 10 uM
5-hydroxytryptamine receptor 1A (Homo sapiens), sequence (P08908 whole entry): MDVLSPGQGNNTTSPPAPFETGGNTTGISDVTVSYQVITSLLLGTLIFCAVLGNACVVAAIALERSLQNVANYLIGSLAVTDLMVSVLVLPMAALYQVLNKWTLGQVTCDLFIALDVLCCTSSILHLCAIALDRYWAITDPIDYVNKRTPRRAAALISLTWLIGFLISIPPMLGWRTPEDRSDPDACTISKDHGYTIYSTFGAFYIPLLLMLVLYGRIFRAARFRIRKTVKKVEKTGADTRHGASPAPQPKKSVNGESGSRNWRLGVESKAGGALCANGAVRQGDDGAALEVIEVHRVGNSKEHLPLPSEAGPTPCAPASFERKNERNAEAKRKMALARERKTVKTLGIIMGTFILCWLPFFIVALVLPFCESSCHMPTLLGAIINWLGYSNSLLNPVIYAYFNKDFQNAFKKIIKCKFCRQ

Homo sapiens [35] = organism: Homo sapiens; assay: Binding affinity to verapamil site of calcium channel L (unknown origin) assessed as inhibition of control specific binding at 10 uM
[36] = target: potassium channel (voltage-gated potassium channel family) (Homo sapiens, UniProt O43525+O43526+O95259+P16389+P17658+P22001+P22459+P22460+P48547+P51787+P56696+Q03721+Q09470+Q12809+Q14003+Q14721+Q16322+Q6PIU1+Q8NCM2+Q8TAE7+Q8TDN1+Q8TDN2+Q92953+Q96KK3+Q96L42+Q96PR1+Q96RP8+Q9BQ31+Q9H252+Q9H3M0+Q9NR82+Q9NS40+Q9NSA2+Q9NZV8+Q9UIX4+Q9UJ96+Q9UK17+Q9ULD8+Q9ULS6+Q9UQ05); assay: Binding affinity to potassium channel (unknown origin) assessed as inhibition of control specific binding at 10 uM; format: protein assay

Sodium-dependent noradrenaline transporter (Homo sapiens), sequence (P23975 whole entry): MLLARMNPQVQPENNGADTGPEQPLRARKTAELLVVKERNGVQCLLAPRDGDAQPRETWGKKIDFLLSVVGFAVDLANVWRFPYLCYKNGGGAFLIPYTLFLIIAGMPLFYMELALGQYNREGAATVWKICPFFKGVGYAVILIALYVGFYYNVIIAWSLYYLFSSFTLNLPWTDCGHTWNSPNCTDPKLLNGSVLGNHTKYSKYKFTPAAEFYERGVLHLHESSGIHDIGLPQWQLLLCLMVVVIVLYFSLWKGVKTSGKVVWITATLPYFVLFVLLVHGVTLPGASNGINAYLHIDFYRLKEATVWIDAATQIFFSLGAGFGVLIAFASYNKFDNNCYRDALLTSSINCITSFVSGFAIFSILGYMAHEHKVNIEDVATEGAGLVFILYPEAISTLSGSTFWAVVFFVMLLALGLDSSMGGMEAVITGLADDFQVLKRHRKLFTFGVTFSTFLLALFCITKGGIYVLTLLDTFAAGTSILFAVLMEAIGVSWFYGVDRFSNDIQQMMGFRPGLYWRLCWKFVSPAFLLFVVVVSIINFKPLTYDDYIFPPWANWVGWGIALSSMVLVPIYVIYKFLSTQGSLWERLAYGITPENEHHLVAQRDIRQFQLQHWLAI

Q: What does the source list for `CC(C)N1CCN(S(=O)(=O)c2ccc(NC(=O)c3ccc(C(F)(F)F)cc3[N+](=O)[O-])cc2)CC1`?
A: inhibition [1]: 4%; inhibition [2]: 6%; IC50 [3]: 420 nM; Vd [4]: 1.44 L/kg; half-life [5]: 42.6 min; Cmax [6]: 3820 ng/mL; bioavailability [7]: 46.8%; fraction unbound [8]: 0.01; IC50 [9]: 2100 nM; IC50 [10]: 120 nM; IC50 [11]: 320 nM; IC50 [12]: 57 nM; AUC(0-inf) [13]: 16500 ng·h/mL; bioavailability [14]: 75%; inhibition [15]: 2%; inhibition [16]: 10%; inhibition [17]: 1%; inhibition (Homo sapiens [18]): 9%; inhibition [19]: 3%; inhibition [20]: 3%; inhibition [21]: 1%; inhibition [22]: 2%; inhibition [23]: -4%; inhibition [24]: 3%; inhibition [25]: 4%; inhibition [26]: 4%; inhibition [27]: -4%; inhibition [28]: 76%; inhibition [29]: 6%; inhibition [30]: 2%; inhibition [31]: -8%; inhibition [32]: 1%; inhibition [33]: -2%; inhibition [34]: -4%; inhibition (Homo sapiens [35]): 7%; inhibition at 10 µM [36]: -25%
